Measurements as given in patent US20130345392A1, “EDN3-LIKE PEPTIDES AND USES THEREOF” (Pfizer Inc, priority 2011, published 2013).
Bridges are numbered along the chain shown (N, C = ends). Where no end group is shown, it is not given here.

Experiments:
H4IIE rat hepatoma cells = experiment: H4IIE glucose production in vitro; format: cell-based; conditions: 100 nM, 24 hours, mean of 3 independent experiments±SEM, p=0.01
Method: Cell culture reagents were purchased from Invitrogen (Gathersburg, Md.) unless otherwise noted. GLUTag cells were obtained from Dr. Daniel Drucker and cultured in High Glucose DMEM medium supplemented with 100 U/mL penicillin, 100 μg/mL streptomycin, and 10% fetal calf serum at 10% CO2 at 37° C. H4IIE rat hepatoma cells were purchase from American Type Culture Collection (Manassas, Va.) and cultured in low glucose DMEM supplemented with 100 U/mL penicillin, 100 μg/mL streptomycin, 2 mM L-glutamine and 10% heat-inactivated fetal calf serum at 5% CO2 and 37° C.
H4IIE cells were plated at 120,000 cells per well into 96-well Poly-D-Lysine coated plates and treated using a modification of the protocol as previously reported (de Raemy-Schenk, 2006). Briefly, 4 hours after plating, growth medium was exchanged for glucose production medium (glucose-free DMEM, 2 mM sodium pyruvate, and 20 mM sodium lactate) for 18 hours and then cells were treated with EDN3 97-140 or vehicle in fresh glucose production medium. After 24 hours, media was collected and assayed for glucose using an Amplex Red Glucose/Glucose Oxidase Assay Kit purchased from Invitrogen (Gathersburg, Md.). Data was reported as a percent of vehicle to normalize across experiments. […]

[1] = target: T1, human endothelin ETA receptor (Homo sapiens, UniProt P25101); experiment: Radioligand binding, human endothelin ETA receptor in transfected CHO cell membranes; conditions: tested at a concentration of up to 3 μM (p>0.05)
T1 construct: expressed in transfected cells; host or cells: CHO cells
T1 sequence (P25101 21-427): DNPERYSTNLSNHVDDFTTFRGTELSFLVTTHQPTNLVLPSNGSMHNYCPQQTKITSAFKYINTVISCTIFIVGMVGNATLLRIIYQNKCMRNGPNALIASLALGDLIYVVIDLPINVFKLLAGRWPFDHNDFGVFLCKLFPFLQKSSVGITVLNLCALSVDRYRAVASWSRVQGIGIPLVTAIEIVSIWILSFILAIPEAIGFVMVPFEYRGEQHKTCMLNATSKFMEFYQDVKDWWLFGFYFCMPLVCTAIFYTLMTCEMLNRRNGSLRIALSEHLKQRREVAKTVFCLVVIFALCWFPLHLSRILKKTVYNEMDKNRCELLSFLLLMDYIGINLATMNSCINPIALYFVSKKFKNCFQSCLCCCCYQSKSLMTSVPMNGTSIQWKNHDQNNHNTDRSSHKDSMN
Method: To evaluate the affinity of EDN3 97-140 for the agonist site of the human endothelin ETA receptor, radioligand binding with CHO cells transfected with the ETA receptor was used. […] Following incubation, the samples are filtered rapidly under vacuum through glass fiber filters (GF/B, Packard) presoaked with 0.1% BSA and rinsed several times with an ice-cold buffer containing 50 mM Tris-HCl and 150 mM NaCl using a 96-sample cell harvester (Unifilter, Packard). Filters were dried and then counted for radioactivity in a scintillation counter (Topcount, Packard) using a scintillation cocktail (Microscint 0, Packard). Results are expressed as a percent inhibition of the control radioligand specific binding.

rat perfused colon = experiment: GLP-1 secretion from rat perfused colon ex vivo
Method: Ex vivo rat colon vascular perfusion experiments were performed as previously described (Plaisancié, 1995). Male Sprague-Dawley rats (300 g) were purchased from Charles River and fed ad libitum with Purina Lab Chow #5001 (WF Fisher and Son Inc Sommerville, N.J.). Rats were decapitated and the abdomen was opened with a midline incision. […] The arterial vascular perfusion started immediately with an oxygenated Krebs-Henseleit buffer containing-solution at a rate of 2 mL/minute [solution: Krebs-Henseleit buffer (25.0 mM NaHCO3; 118 mM NaCl; 4.7 mM KCl; 1.2 mM MgSO4; 1.2 mM KH2PO4; 2.5 mM CaCl2) with 3% BSA, 5 mM glucose, MEM essential and nonessential amino acids (pH 7.4)]. The colonal lumen was perfused at the rate of 0.5 mL/minute. The remaining colon and small intestine were removed after the ligation of their respective supplying vessels. After the colon preparation was transferred to a 37° C. tissue bath, the portal effluent was collected as 5 minute fractions. The fraction aliquots were frozen at −20° C. for subsequent determinations of GLP-1. EDN3 97-140 was dissolved at 200 nM in vascular perfusion solution and perfused into the artery after a 30 minute baseline collection. […] The GLP-1 detection assay was carried out by using a commercial kit for active GLP-1 (7-36) amide according to the manufacturer's instructions (Millipore). GLP-1 release data was normalized to % baseline using the average of fractions collected prior to treatment as the baseline value and the peak data following each treatment. The average data across 3 independent experiments was reported comparing EDN3 97-140 versus control (baseline) and forskolin versus control (baseline). Statistical analysis was performed by one sided Satterwaite's test due to unequal variance and the Holm test was applied to account for multiple comparisons.

binding to ETA receptor [1]: failed to bind
Substance: CTCFTYKDKECVYYCHLDIIWINTPEQTVPYGLSNYRESLRGKR-NH2 (disulfide 1-15, 3-11) [EDN3 97-140]
reduction of basal glucose production versus vehicle (H4IIE rat hepatoma cells): 19.5±7.6%
increase in GLP secretion from the rat perfused colon (rat perfused colon; 200 nM perfused via the superior mesenteric artery, vs baseline, p=0.0438): 56±18%
increase in GLP-1 release (rat perfused colon; 200 nM, rat perfused colon): ~10 pM
